Assay results published in article PMC9709641 (Frontiers in Plant Science, 2022).

Legend:
[1] = target: α-glucosidase; assay: PNPG hydrolysis assay, absorbance at […] nm; maximum inhibition […] at […]; assay type: biochemical
[2] = target: α-glucosidase; assay: PNPG hydrolysis assay, absorbance at […] nm; assay type: biochemical

Molecule eleutheroside E has an IC50 [1] of 0.19 µM.
`N#CC(O)c1ccc(O)cc1` (centres unmarked) [4-hydroxymandelonitrile] gave an IC50 [2] of 15.8 µM.
